In article PMC7857480 (The Journal of Biological Chemistry, 2020):

Target: FigC (Francisella tularensis, UniProt Q15EG8)
Details: covalent (Schiff base with K63); active site at dimer interface

Sequence of FigC (Q15EG8 1-417): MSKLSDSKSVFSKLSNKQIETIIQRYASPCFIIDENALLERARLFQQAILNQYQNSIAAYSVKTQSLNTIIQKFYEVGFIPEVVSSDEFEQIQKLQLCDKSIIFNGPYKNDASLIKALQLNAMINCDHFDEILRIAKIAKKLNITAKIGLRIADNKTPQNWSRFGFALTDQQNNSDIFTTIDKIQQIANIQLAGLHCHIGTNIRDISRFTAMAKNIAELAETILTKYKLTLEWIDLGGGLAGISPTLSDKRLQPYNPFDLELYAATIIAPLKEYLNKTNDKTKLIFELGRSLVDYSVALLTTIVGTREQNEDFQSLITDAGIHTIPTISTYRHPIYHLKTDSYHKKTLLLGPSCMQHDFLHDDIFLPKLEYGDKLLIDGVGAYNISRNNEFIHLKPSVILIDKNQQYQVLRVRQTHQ

`Cc1ncc(COP(=O)(O)O)c(C=O)c1O` [PLP] was tested, and the “X-ray crystal structure, 2.1 Å, SeMet SAD” value was “all four active sites showed good density for the cofactor PLP”.
